Tested on: Swiss albino mice
Assay: Serum triglyceride and total cholesterol lowering activity in Swiss albino mice
Type: in vivo
Conditions: male Swiss albino mice, 3 mg/kg/day orally for 6 days, 1 hour after dosing on 6th day
Description: i) Serum Triglyceride and Total Cholesterol Lowering Activity in Swiss Albino Mice:
Male Swiss albino mice (SAM) were bred in Zydus animal house. All these animals were maintained under 12 hour light and dark cycle at 25±1° C. Animals were given standard laboratory chow (NIN, Hyderabad, India) and water ad libitum. SAM of 20–30 g body weight range were used.
The test compounds were administered orally to Swiss albino mice at 0.001 to 50 mg/kg/day dose for 6 days. The compound was administered after suspending it in 0.25% CMC or dissolving it in water, when compound is water-soluble. Control mice were treated with vehicle (0.25% of Carboxymethylcellulose; dose 10 ml/kg).
The blood samples were collected on 0th day and in fed state 1 hour after drug administration on 6th day of the treatment. The blood was collected in non heparinised capillary and the serum was analyzed for triglyceride and total cholesterol (Wieland, O. Methods of Enzymatic analysis. Bergermeyer, H., O., Ed., 1963. 211–214; Trinder, P. Ann. Clin. Biochem. 1969. 6:24–27). Measurement of serum triglyceride and total cholesterol was done using commercial kits (Zydus-Cadila, Pathline, Ahmedabad, India).
Percentage reduction in triglycerides/total cholesterol were calculated according to the formula:
[formula] • OC=Zero day control group value OT=Zero day treated group value • TC=Test day control group TT=Test day treated group

CCOC(Cc1ccc2cc(OCCn3c(C)ccc3-c3ccc(OC)cc3)ccc2c1)C(=O)OC (racemic) [Example 76, (R/S) Methyl-2-ethoxy-3[6-[2-[2-(4-methoxyphenyl)-5-methyl-pyrrol-1-yl]ethoxy]napthalen-2yl]propanoate]
% Triglyceride lowering: 26%

— patent US7041837B2, “Heterocyclic compounds having hypolipidemic, hypocholesteremic activities process for their preparation and pharmaceutical compositions containing them and their use in medicine” (Cadilla Healthcare Limited, priority 2001, dated 2006)
